Target: Fibroblast growth factor 2 (Homo sapiens, UniProt P09038)
Assay: Binding affinity to basic fibroblast growth factor (unknown origin) using sugar chip immobilized compound by surface plasmon resonance method; call rule not given here

Fibroblast growth factor 2, sequence (P09038 143-288 limits assumed): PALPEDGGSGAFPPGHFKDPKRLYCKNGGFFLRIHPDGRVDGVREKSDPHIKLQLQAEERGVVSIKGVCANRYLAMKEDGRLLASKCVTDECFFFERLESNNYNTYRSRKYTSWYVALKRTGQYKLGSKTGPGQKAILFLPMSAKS

Row | Kd | Kd (read-out: Kd) [nM] | SMILES
1 | Not Active | – | CC(=O)N[C@H]1[C@@H](OC[C@@H](O)[C@@H](O)[C@H](O)[C@@H](O)CNc2cccc(NC(=O)CCCCC3CCSS3)c2)O[C@H](CO)[C@H](O)[C@@H]1O[C@@H]1O[C@H](C(=O)[O-])[C@@H](O)[C@H](O)[C@H]1O.[Na+] (stereo partly specified)
2 | – | 16 | CC(=O)N[C@H]1[C@@H](OC[C@@H](O)[C@@H](O)[C@H](O)[C@@H](O)CNc2cccc(NC(=O)CCCCC3CCSS3)c2)O[C@H](COS(=O)(=O)O)[C@H](OS(=O)(=O)O)[C@@H]1O[C@@H]1O[C@H](C(=O)O)[C@@H](O)[C@H](O)[C@H]1O (stereo partly specified)
3 | – | 41 | CC(=O)N[C@H]1[C@@H](OC[C@@H](O)[C@@H](O)[C@H](O)[C@@H](O)CNc2cccc(NC(=O)CCCCC3CCSS3)c2)O[C@H](CO)[C@H](OS(=O)(=O)O)[C@@H]1O[C@@H]1O[C@H](C(=O)O)[C@@H](O)[C@H](OS(=O)(=O)O)[C@H]1O (stereo partly specified)
4 | Not Active | – | CC(=O)N[C@H]1[C@@H](OC[C@@H](O)[C@@H](O)[C@H](O)[C@@H](O)CNc2cccc(NC(=O)CCCCC3CCSS3)c2)O[C@H](CO)[C@H](OS(=O)(=O)[O-])[C@@H]1O[C@@H]1O[C@H](C(=O)[O-])[C@@H](O)[C@H](O)[C@H]1O.[Na+].[Na+] (mixture of isomers)
5 | – | 36 | CC(=O)N[C@H]1[C@@H](OC[C@@H](O)[C@@H](O)[C@H](O)[C@@H](O)CNc2cccc(NC(=O)CCCCC3CCSS3)c2)O[C@H](COS(=O)(=O)O)[C@H](O)[C@@H]1O[C@@H]1O[C@H](C(=O)O)[C@@H](O)[C@H](O)[C@H]1O (mixture of isomers)
6 | – | 62 | CC(=O)N[C@H]1[C@@H](OC[C@@H](O)[C@@H](O)[C@H](O)[C@@H](O)CNc2cccc(NC(=O)CCCCC3CCSS3)c2)O[C@H](CO)[C@H](O)[C@@H]1O[C@@H]1O[C@H](C(=O)O)[C@@H](O)[C@H](O)[C@H]1OS(=O)(=O)O (mixture of isomers)
7 | – | 25 | CC(=O)N[C@H]1[C@@H](OC[C@@H](O)[C@@H](O)[C@H](O)[C@@H](O)CNc2cccc(NC(=O)CCCCC3CCSS3)c2)O[C@H](CO)[C@H](O)[C@@H]1O[C@@H]1O[C@H](C(=O)O)[C@@H](O)[C@H](OS(=O)(=O)O)[C@H]1O (mixture of isomers)
8 | – | 41 | CC(=O)N[C@H]1[C@@H](OC[C@@H](O)[C@@H](O)[C@H](O)[C@@H](O)CNc2cccc(NC(=O)CCCCC3CCSS3)c2)O[C@H](CO)[C@H](OS(=O)(=O)O)[C@@H]1O[C@@H]1O[C@H](C(=O)O)[C@@H](O)[C@H](O)[C@H]1OS(=O)(=O)O (mixture of isomers)
9 | – | 23 | CC(=O)N[C@H]1[C@@H](OC[C@@H](O)[C@@H](O)[C@H](O)[C@@H](O)CNc2cccc(NC(=O)CCCCC3CCSS3)c2)O[C@H](COS(=O)(=O)O)[C@H](O)[C@@H]1O[C@@H]1O[C@H](C(=O)O)[C@@H](O)[C@H](O)[C@H]1OS(=O)(=O)O (mixture of isomers)
10 | – | 147 | CC(=O)N[C@H]1[C@@H](OC[C@@H](O)[C@@H](O)[C@H](O)[C@@H](O)CNc2cccc(NC(=O)CCCCC3CCSS3)c2)O[C@H](COS(=O)(=O)O)[C@H](O)[C@@H]1O[C@@H]1O[C@H](C(=O)O)[C@@H](O)[C@H](OS(=O)(=O)O)[C@H]1O (mixture of isomers)
11 | – | 95 | CC(=O)N[C@H]1[C@@H](OC[C@@H](O)[C@@H](O)[C@H](O)[C@@H](O)CNc2cccc(NC(=O)CCCCC3CCSS3)c2)O[C@H](CO)[C@H](O)[C@@H]1O[C@@H]1O[C@H](C(=O)O)[C@@H](O)[C@H](OS(=O)(=O)O)[C@H]1OS(=O)(=O)O (mixture of isomers)
12 | – | 21 | CC(=O)N[C@H]1[C@@H](OC[C@@H](O)[C@@H](O)[C@H](O)[C@@H](O)CNc2cccc(NC(=O)CCCCC3CCSS3)c2)O[C@H](COS(=O)(=O)O)[C@H](OS(=O)(=O)O)[C@@H]1O[C@@H]1O[C@H](C(=O)O)[C@@H](O)[C@H](O)[C@H]1OS(=O)(=O)O (mixture of isomers)
13 | – | 60 | CC(=O)N[C@H]1[C@@H](OC[C@@H](O)[C@@H](O)[C@H](O)[C@@H](O)CNc2cccc(NC(=O)CCCCC3CCSS3)c2)O[C@H](COS(=O)(=O)O)[C@H](OS(=O)(=O)O)[C@@H]1O[C@@H]1O[C@H](C(=O)O)[C@@H](O)[C@H](OS(=O)(=O)O)[C@H]1O (mixture of isomers)
14 | – | 52 | CC(=O)N[C@H]1[C@@H](OC[C@@H](O)[C@@H](O)[C@H](O)[C@@H](O)CNc2cccc(NC(=O)CCCCC3CCSS3)c2)O[C@H](CO)[C@H](OS(=O)(=O)O)[C@@H]1O[C@@H]1O[C@H](C(=O)O)[C@@H](O)[C@H](OS(=O)(=O)O)[C@H]1OS(=O)(=O)O (mixture of isomers)
15 | – | 99 | CC(=O)N[C@H]1[C@@H](OC[C@@H](O)[C@@H](O)[C@H](O)[C@@H](O)CNc2cccc(NC(=O)CCCCC3CCSS3)c2)O[C@H](COS(=O)(=O)O)[C@H](O)[C@@H]1O[C@@H]1O[C@H](C(=O)O)[C@@H](O)[C@H](OS(=O)(=O)O)[C@H]1OS(=O)(=O)O (mixture of isomers)
16 | – | 4.9 | CC(=O)N[C@H]1[C@@H](OC[C@@H](O)[C@@H](O)[C@H](O)[C@@H](O)CNc2cccc(NC(=O)CCCCC3CCSS3)c2)O[C@H](COS(=O)(=O)O)[C@H](OS(=O)(=O)O)[C@@H]1O[C@@H]1O[C@H](C(=O)O)[C@@H](O)[C@H](OS(=O)(=O)O)[C@H]1OS(=O)(=O)O (mixture of isomers)

— ChEMBL document CHEMBL3397042, “Synthesis of a chondroitin sulfate disaccharide library and a GAG-binding protein interaction analysis” (Bioorg Med Chem Lett, 2015)
